Test results: US10647675B2 (priority 2015, dated 2020)
Converted amounts (≈) assume the structure as drawn.

Tests used:
[1] = tested on: Trichophyton mentagrophytes SM-110; experiment: Antifungal activity evaluation test: minimum inhibitory concentration (MIC), broth dilution by reference to CLSI M38-A2; assay type: cell-based; conditions: SM110, read-out: MIC (T. menta.)
Summary of the method: (§1)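 Broth microdilution after CLSI M38-A2: 2-fold DMSO dilution series in MOPS-buffered RPMI 1640 pH 7.0, inoculum 2×10^3 cells/mL final. Incubated 35° C for 4 days; MIC (μg/mL) is lowest concentration giving visually ≥80% growth inhibition versus growth control.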

[2] = tested on: Trichophyton rubrum KD-1130; experiment: as above; assay type: cell-based; conditions: KD1130, read-out: MIC (T. rubrum)
Summary of the method: as §1

SMILES | MIC [1] [µg/mL] | MIC [2] [µg/mL]
COc1ccc(F)cc1-c1cccnc1Oc1cnc(C(F)F)c(C)c1 [I-122, 2-(difluoromethyl)-5-{[3-(5-fluoro-2-methoxyphenyl)pyridin-2-yl]oxy}-3-methylpyridine] | ≤ 0.1 | ≤ 0.1
Cn1nccc1-c1cccnc1Oc1ccc(C(F)(F)F)cc1 [I-221, 3-(1-methyl-1H-pyrazol-5-yl)-2-[4-(trifluoromethyl)phenoxy]pyridine] | 0.2 to 0.78 (≈ 0.626 to 2.44 µM) | 0.2 to 0.78 (≈ 0.626 to 2.44 µM)
CCC(=O)OCCc1ccc(Oc2ncccc2-c2cnccc2OC)cc1 [I-278, 4-{[4′-methoxy-3,3′-bipyridin)-2-yl]oxy}phenethyl propionate] | 0.2 to 0.78 (≈ 0.529 to 2.06 µM) | 0.2 to 0.78 (≈ 0.529 to 2.06 µM)
COc1ncccc1-c1cccnc1Oc1ccc(CCn2cccn2)cc1 [I-400, 2-{4-[2-(1H-pyrazol-1-yl)ethyl]phenoxy}-2′-methoxy-3,3′-bipyridine] | ≤ 0.1 | ≤ 0.1
COc1ccccc1-c1cccnc1Oc1ccc(C(F)F)c(C)c1 [I-455] | ≤ 0.1 | ≤ 0.1
COc1ccncc1-c1cccnc1Oc1ccc(Cl)cc1 [I-235, 2-(4-chlorophenoxy)-4′-methoxy-3,3′-bipyridine] | 0.2 to 0.78 (≈ 0.639 to 2.49 µM) | 0.2 to 0.78 (≈ 0.639 to 2.49 µM)
FC(F)(F)c1ccc(Oc2ncccc2-c2cccc3ncccc23)cn1 [I-36, 5-(2-{[6-(trifluoromethyl)pyridin-3-yl]oxy}pyridin-3-yl)quinoline] | ≤ 0.1 | 0.2 to 0.78 (≈ 0.544 to 2.12 µM)
COc1ccncc1-c1cccnc1Oc1ccc(SC)cc1 [I-241, 4′-methoxy-2-[4-(methylthio)phenoxy]-3,3′-bipyridine] | ≤ 0.1 | ≤ 0.1
CCN(C)CC(F)(F)c1ccc(Oc2ncccc2-c2ccccc2OC)cn1 [I-149, N-ethyl-2,2-difluoro-2-(5-{[3-(2-methoxyphenyl)pyridin-2-yl]oxy}-pyridin-2-yl)-N-methylethanamine] | 0.2 to 0.78 (≈ 0.501 to 1.95 µM) | 0.2 to 0.78 (≈ 0.501 to 1.95 µM)
COc1ncccc1-c1cccnc1Oc1ccc(C(C)C)cc1 [I-447] | ≤ 0.1 | ≤ 0.1
COC(=O)N(C)CC(F)(F)c1ccc(Oc2ncccc2-c2ccccc2OC)cn1 [I-152, methyl [2,2-difluoro-2-(5-{[3-(2-methoxyphenyl)pyridin-2-yl]oxy}pyridin-2-yl)ethyl](methyl)carbamate] | 0.2 to 0.78 (≈ 0.466 to 1.82 µM) | 0.2 to 0.78 (≈ 0.466 to 1.82 µM)
COc1ncccc1-c1cccnc1Oc1ccc(C2CC2)nc1 [I-130, 2-[(6-cyclopropylpyridin-3-yl)oxy]-2′-methoxy-3,3′-bipyridine] | 0.2 to 0.78 (≈ 0.626 to 2.44 µM) | 0.2 to 0.78 (≈ 0.626 to 2.44 µM)
COCC(F)(F)c1ccc(Oc2ncccc2-c2cc(F)ccc2OC)cn1 [I-162, 2-{[6-(1,1-difluoro-2-methoxyethyl)pyridin-3-yl]oxy}-3-(5-fluoro-2-methoxyphenyl)pyridine] | ≤ 0.1 | ≤ 0.1
COc1ccc(Cl)cc1-c1cccnc1Oc1ccc(C(F)(F)F)nc1 [I-23, 3-(5-chloro-2-methoxyphenyl)-2-{[6-(trifluoromethyl)pyridin-3-yl]oxy}pyridine] | ≤ 0.1 | ≤ 0.1
FC(F)(F)c1ccc(Oc2ncccc2-c2ccccc2C2CC2)cn1 [I-59, 3-(2-cyclopropylphenyl)-2-{[6-(trifluoromethyl)pyridin-3-yl]oxy}pryidine] | 0.2 to 0.78 (≈ 0.561 to 2.19 µM) | 0.2 to 0.78 (≈ 0.561 to 2.19 µM)
COc1cc(F)ccc1-c1cccnc1Oc1ccc(C2CC2)nc1 [I-129, 2-[(6-cyclopropylpyridin-3-yl)oxy]-3-(4-fluoro-2-methoxyphenyl)pyridine] | ≤ 0.1 | ≤ 0.1
COC(=O)CN(C)c1ncc(Oc2ncccc2-c2ccc(F)cc2OC)cn1 [I-192, methyl 2-[(5-{[3-(4-fluoro-2-methoxyphenyl)pyridin-2-yl]oxy}-pyrimidin-2-yl)(methyl)amino]acetate] | ≤ 0.1 | ≤ 0.1
COc1ccccc1-c1cncnc1Oc1ccc(C(F)F)cc1 [I-322, 4-[4-(difluoromethyl)phenoxy]-5-(2-methoxyphenyl)pyrimidine] | ≤ 0.1 | ≤ 0.1
COc1ccccc1-c1cccnc1Oc1cnc2c(c1)CCCC2O (stereo not shown) [I-140, 3-{[3-(2-methoxyphenyl)pyridin-2-yl]oxy}-5,6,7,8-tetrahydroquinolin-8-ol] | 0.2 to 0.78 (≈ 0.574 to 2.24 µM) | 0.2 to 0.78 (≈ 0.574 to 2.24 µM)
FC(F)(F)c1ccc(Oc2ncccc2-c2cccc3nccnc23)cn1 [I-37, 5-(2-{[6-(trifluoromethyl)pyridin-3-yl]oxy}pyridin-3-yl)quinoxaline] | 0.2 to 0.78 (≈ 0.543 to 2.12 µM) | 0.2 to 0.78 (≈ 0.543 to 2.12 µM)
FC(F)(F)c1ccc(Oc2ncccc2-c2cccc3c2OCCC3)cn1 [I-38, 3-(chroman-8-yl)-2-{[6-(trifluoromethyl)pyridin-3-yl]oxy}pyridine] | ≤ 0.1 | ≤ 0.1
COc1ccncc1-c1cccnc1Oc1ccc(S(F)(F)(F)(F)F)cc1 [I-240, 4′-methoxy-2-[4-(pentafluorosulfanyl)phenoxy]-3,3′-bipyridine] | ≤ 0.1 | ≤ 0.1
CCN(C)c1ncc(Oc2ncccc2-c2ccc(F)cc2OC)cn1 [I-184, N-ethyl-5-{[3-(4-fluoro-2-methoxyphenyl)pyridin-2-yl]oxy}-N-methylpyrimidin-2-amine] | ≤ 0.1 | ≤ 0.1
